Data reported in paper PMC10819767, “An ADAM10 Exosite Inhibitor Is Efficacious in an In Vivo Collagen-Induced Arthritis Model” (Pharmaceuticals, 2024).
Like-named read-outs stand apart in the source and are kept apart here.

Experiments:
[1] = Pharmacokinetics in plasma and synovial fluid after oral gavage; format: in vivo, Sprague Dawley male rats; conditions: rat; for Cmax / AUC(0-inf) / AUC(0-t) / Tmax: male, Sprague Dawley; for Cmax: po, 10 mg/kg
Description: Pharmacokinetics of CID 3117694 in Sprague Dawley male rats. The CID 3117694 structure was confirmed using H1 NMR (Figure S1), and it was determined to be >95% pure via HPLC (Figure S2). To determine if CID 3117694 can be used in in vivo RA efficacy model studies, we conducted an in vivo pharmacokinetic (PK) study. CID 3117694 was formulated in 10% DMSO, 40% PEG400, 30% PG, and 20% H2O at 2 mg/mL and administered via oral gavage to Sprague Dawley male rats at 10 mg/kg. Blood and synovial fluid were collected at 15 min, 30 min, 1, 2, 4, 8, and 24 h and quantitated using LC/MS. PK parameters were calculated using WinNonLin 8.3.4 software.
Pharmacokinetics of CID 3117694. All animal studies were conducted in accordance with NSU IACUC guidelines. Study protocol #2021.04.DM2 was approved using NSU IACUC before the commencement of the studies. CID 3117694 was formulated in 10% DMSO, 40% PEG400, 30% PG, and 20% H2O at 2 mg/mL and administered via an intragastric (ig) gavage to six Sprague Dawley male rats at 10 mg/kg. The animals were anesthetized using isoflurane. Blood and synovial fluid were collected at 15 min, 30 min, 1 h, 2 h, 4 h, 8 h, and 24 h after the administration of CID 3117694. Synovial fluid (SF) was collected using a 23-gauge needle connected to a mini peristaltic pump via perfusion tubing. Sterile saline was infused at a constant rate of 100 μL/min^−1. After the infusion of 100 μL of the vehicle (sterile saline), the outflow tubing was connected to the 25-gauge needle to minimize pressure build-up within the joint space. The fluid was infused and withdrawn at a constant rate until a 250 μL basal sample was collected in a 1.5 mL centrifuge tube. Samples were immediately frozen at −20 °C. Blood was collected using a 25 G needle directly from the heart. The samples were prepared for LC-MS/MS analysis using the acetonitrile protein precipitation technique. Briefly, blank plasma and subject samples (plasma and SF samples) were retrieved from the deep freezer and allowed to thaw. The calibration curve standards (10 to 10,000 μg/mL of CID 3117694) and quality control samples were prepared using blank plasma. The thawed samples were vortexed to ensure the complete mixing of the contents. A total of 50 µL of each sample was transferred to the vials, and 200 µL of an Internal Standard (IS, telmisartan) mixed with acetonitrile was added to all the samples and vortexed. Samples were kept on the shaker for 5 min to ensure complete mixing of contents. The samples were centrifuged at 4000 rpm and 20 °C for 10 min, and the supernatant was transferred into auto-injector vials and loaded into the auto-sampler. A total of 5 µL was injected onto the API-4500 Q TRAP LC-MS/MS system. The samples were separated on a Phenomenex, Synergi C18 4.6 mm × 50 mm, 4 µm HPLC column using a 10 mM ammonium acetate + 0.1% Formic acid buffer as solvent A and 100% Acetonitrile as solvent B. PK parameters were quantitated using WinNonLin (Certara, Princeton, NJ, USA).

ADAM17 = biological target: T1, ADAM17 (Homo sapiens, UniProt P78536); experiment: ADAM17 enzyme assay with glycosylated substrate DM2; format: biochemical
T1 construct: purchased R & D Systems (Minneapolis, MN, USA)
T1 sequence (P78536 215-824, species assumed): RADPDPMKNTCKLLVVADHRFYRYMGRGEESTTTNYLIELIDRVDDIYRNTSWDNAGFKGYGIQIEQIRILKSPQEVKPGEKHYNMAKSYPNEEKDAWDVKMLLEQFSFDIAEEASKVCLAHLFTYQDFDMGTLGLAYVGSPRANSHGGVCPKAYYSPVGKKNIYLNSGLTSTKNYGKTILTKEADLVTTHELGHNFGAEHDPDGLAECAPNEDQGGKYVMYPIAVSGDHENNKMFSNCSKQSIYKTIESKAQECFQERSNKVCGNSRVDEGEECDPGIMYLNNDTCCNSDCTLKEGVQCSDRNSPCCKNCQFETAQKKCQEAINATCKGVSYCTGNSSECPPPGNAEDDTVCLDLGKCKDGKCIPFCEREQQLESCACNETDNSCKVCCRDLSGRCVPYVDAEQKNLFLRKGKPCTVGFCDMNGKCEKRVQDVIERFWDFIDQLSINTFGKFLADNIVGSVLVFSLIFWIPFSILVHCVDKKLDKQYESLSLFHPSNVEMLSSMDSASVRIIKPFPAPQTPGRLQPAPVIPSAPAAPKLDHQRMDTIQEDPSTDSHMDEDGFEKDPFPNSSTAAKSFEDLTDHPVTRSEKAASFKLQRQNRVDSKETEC
Description: ADAM10 and ADAM17 assays. Both assays were performed as published previously by us. Briefly, both assays followed the same general protocol. In total, 5 μL of the 2× enzyme solution (20 nM) in an assay buffer (10 mM Hepes, 0.001% Brij-35, pH 7.5) were added to solid bottom black 384 plates (Nunc, ThermoFisher, Waltham, MA, USA, cat# 264705). Next, test compounds and pharmacological controls were added to the corresponding wells using a 384-pin tool device (V & P Scientific, San Diego, CA, USA). After 60 min of incubation at RT, the reactions were started via the addition of 5 μL of the 2× solutions of glycosylated substrate DM2 (20 μM). The reactions were incubated at RT for 2 h, after which the fluorescence was measured using a Biotek H1 multimode microplate imager (λexcitation = 360 nm, λemission = 460 nm). IC50 values were calculated by fitting normalized data to the sigmoidal log vs. the response equation utilizing a non-linear regression analysis from GraphPad Prizm 9.

OPRD1 = test system: OPRD1; design: method as in PMID 34817776; conditions: cited from earlier work
caspase 8 = test system: caspase 8; design: method as in PubChem database; conditions: ref PubChem database; cited from earlier work
IL-10 = experiment: RA serum marker ELISA, IL-10, CIA mice; format: in vivo, C57 BL/6 mice
Description: The sample size for therapeutic evaluation was calculated using power analysis based on experimental data from similar studies. In a two-sided test and setting the α value at 0.05 and desired power at 0.95, the sample size turned out to be 5 per group. We also expected deaths during the experiments; therefore, we used the formula Nt = N/1-q, where Nt is the number of mice initially used, N is the number required at the end of the study, and q is the proportion of attrition, which is generally 10%. Thus, at the end of the study period, we expected to have data from at least 6 mice per group, which is enough to attain statistical significance if it exists. Data were analyzed using a one-way ANOVA followed by Dunnett’s test compared with the vehicle control. At the end of the study, the mice were anesthetized and sacrificed using CO2 euthanasia. The hind paws of the mice were subjected to a histopathological examination, and the serum was analyzed for CRP, TNF-α, IL-6, and IL-10, as described in the below sections.
RA serum marker analysis. Blood was collected from the tail vein, and 100 µL was used for the assays. All assays were conducted using the manufacturer’s instructions for the respective assay kits. The following assay kits were purchased: Mouse TNF-α GENLISA™ ELISA (Krishgen BioSystems cat#KB2145, Mumbai, India), Mouse IL-10 GENLISA™ ELISA (Krishgen BioSystems cat#KB2072), Mouse hsC-Reactive Protein, hs-CRP GENLISA™ ELISA (Krishgen BioSystems cat#KLM0318), Mouse IL-6 GENLISA™ ELISA (Krishgen BioSystems cat#KB2068).

muscarinic (CHRM1) = test system: muscarinic (CHRM1); design: method as in PMID 34817776; conditions: cited from earlier work
[2] = synovial fluid, 10 mg/kg oral gavage

With COc1cccc(C(=O)NNC(=O)C(=O)Nc2ccc(C)c(Cl)c2)c1 [CID 3117694] the Cmax ([1]; plasma, plasma, 10 mg/kg oral gavage, read-out: Cmax) was 6.64 µg/mL, the Cmax ([1]; plasma, plasma, 10 mg/kg oral gavage, read-out: Cmax, Concentration Plasma) was 18.4 µM and the Cmax ([1]; plasma, plasma, 10 mg/kg oral, read-out: Cmax in plasma) was 18.4 µM. The Cmax ([1]; synovial fluid, synovial fluid (SF), 10 mg/kg oral gavage, read-out: Cmax) was 0.307 µg/mL, the Cmax ([1]; synovial fluid, synovial fluid, 10 mg/kg oral gavage, read-out: Cmax, Concentration SF) was 0.849 µM and the Cmax ([1]; synovial fluid, synovial fluid, 10 mg/kg oral, read-out: Cmax in SF) was 0.849 µM. For the same molecule, the AUC(0-inf) ([1]; plasma, 10 mg/kg oral gavage) was 173 µg·h/mL, the AUC(0-t) ([1]; plasma, 10 mg/kg oral gavage) was 33.1 µg·h/mL and the Tmax ([1]; plasma, 10 mg/kg oral gavage) was 1 h. It also gave an AUC(0-inf) [1, 2] of 1.12 µg·h/mL, an AUC(0-t) [1, 2] of 1.1 µg·h/mL and a Tmax [1, 2] of 1 h. For the same molecule, the “concentration at the 24 h time point” value ([1]; 10 mg/kg ig gavage, 24 h) was “below the limit of quantitation (LOQ)”, the “oral bioavailability (in words)” value ([1]; 10 mg/kg oral) was “orally bioavailable” and the “time present in the blood at a steady-state concentration” value ([1]; 10 mg/kg oral) was “at least 8 h”. For the same molecule, the IC50 (ADAM17) was over 100 µM, the “activity against OPRD1” value (OPRD1) was “inactive” and the “effect on caspase 8 activity” value (caspase 8) was “does not affect”. For the same molecule, the “IL-10 blood level vs healthy control” value (IL-10; CID 3117694 50 mg/kg/day, indomethacin 2.5 mg/kg) was “decreased the markers to the level of the healthy control”, the “concentration of IL-10 in the blood of arthritic mice” value (IL-10; all tested doses (10, 30, 50 mg/kg), vs vehicle control) was “lowers” and the “activity against CHRM1” value (muscarinic (CHRM1)) was “inactive”.
